Results: patent US12534450B2, “Methods and compositions for targeting PD-L1” (Aligos Therapeutics, Inc., priority 2021, dated 2026)

Experiments:
PD-1/PD-L1 interaction = assay: PD-1/PD-L1 NFAT Reporter Assay (co-culture of Jurkat T cells overexpressing PD-1 and PD-L1 expressing CHO cells); assay type: cell-based; settings: co-culture 6 hrs at 37° C., NFAT-mediated luciferase activity
How it was run: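 Compounds added to CHO cells expressing surface anti-CD3 and PD-L1, then Jurkat cells with PD-1 and NFAT-driven luciferase seeded on top; co-culture 6 hrs at 37° C. Luminescence read after ONE-Glo addition, EC50 from dose-response fit.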

PD-1/PD-L1 PPI = PD-1/PD-L1 PPI (Homo sapiens, UniProt Q9NZQ7); assay: PDL1/PD1 Binding Assay; settings: PDL1-6×His 0.3 nM, PD1-Fc-Avi-Biotin 2.5 nM, Acceptor/Donor beads, Envision reader
PD-1/PD-L1 PPI, sequence (Q9NZQ7 19-238 limits assumed): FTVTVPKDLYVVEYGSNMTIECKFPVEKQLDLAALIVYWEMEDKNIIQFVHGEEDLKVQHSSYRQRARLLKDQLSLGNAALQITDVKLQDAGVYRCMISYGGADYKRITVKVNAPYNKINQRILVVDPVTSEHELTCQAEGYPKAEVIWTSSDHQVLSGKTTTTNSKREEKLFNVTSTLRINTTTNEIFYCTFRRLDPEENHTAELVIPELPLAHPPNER
How it was run: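 AlphaScreen competition: compound (1% DMSO) preincubated 30 min RT with PDL1-6×His (0.3 nM), then PD1-Fc-Avi-Biotin (2.5 nM) 30 min; anti-His acceptor and streptavidin donor beads (20 ug/mL each) added, 1 h each, dark up to overnight. Buffer 25 mM Hepes pH 7.4, 150 mM NaCl. IC50 by four-parameter fit.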

SMILES	EC50 (PD-1/PD-L1 interaction; Homo sapiens, Jurkat, 6 h)	IC50 (PD-1/PD-L1 PPI)	EC50 (PD-1/PD-L1 interaction)
COc1nc(-c2cccc(-c3cccc(NC(=O)c4cn(C)c(=O)n(C)c4=O)c3F)c2Cl)cc2c1[C@@H](NC[C@@H]1CCC(=O)N1)CC2 [Compound A-3]	≤ 10 nM	≤ 10 nM	–
COc1nc(-c2cccc(-c3cccc(NC(=O)c4cn(C)c(=O)n(C)c4=O)c3Cl)c2C)cc2c1[C@@H](NC[C@@H]1CCC(=O)N1)CC2 [Compound A-4]	≤ 10 nM	≤ 10 nM	–
COc1nc(-c2cccc(-c3cccc(NC(=O)c4cn(C)c(=O)n(C)c4=O)c3C)c2C)cc2c1[C@@H](NC[C@@H]1CCC(=O)N1)CC2 [Compound A-5]	≤ 10 nM	≤ 10 nM	–
COc1nc(-c2cccc(-c3cccc(NC(=O)c4cn(C)c(=O)n(C)c4=O)c3F)c2C)cc2c1[C@@H](NC[C@@H]1CCC(=O)N1)CC2 [Compound A-6]	10 to 100 nM	≤ 10 nM	–
COc1nc(-c2cccc(-c3cccc(NC(=O)c4cn(C)c(=O)n(C)c4=O)c3Cl)c2F)cc2c1[C@@H](NC[C@@H]1CCC(=O)N1)CC2 [Compound A-7]	≤ 10 nM	≤ 10 nM	–
COc1nc(-c2cccc(-c3cccc(NC(=O)c4cn(C)c(=O)n(C)c4=O)c3C)c2F)cc2c1[C@@H](NC[C@@H]1CCC(=O)N1)CC2 [Compound A-8]	≤ 10 nM	≤ 10 nM	–
COc1nc(-c2cccc(-c3cccc(NC(=O)c4cn(C)c(=O)n(C)c4=O)c3F)c2F)cc2c1[C@H](NC[C@@H]1CCC(=O)N1)CC2 [Compound A-17]	100 to 1000 nM	≤ 10 nM	–
COc1nc(-c2cccc(-c3cccc(NC(=O)c4ccnn(C)c4=O)c3Cl)c2Cl)cc2c1[C@@H](NC[C@@H]1CCC(=O)N1)CC2 [Compound A-43]	≤ 10 nM	≤ 10 nM	–
COc1nc(-c2cccc(-c3cccc(NC(=O)c4ccnn(C)c4=O)c3Cl)c2Cl)cc2c1[C@@H](NC[C@@H]1CCC(=O)N1)CO2 [Compound A-44]	10 to 100 nM	≤ 10 nM	–
COc1nc(-c2cccc(-c3cccc(NC(=O)c4ccnn(C)c4=O)c3C)c2F)cc2c1[C@@H](NC[C@@H]1CCC(=O)N1)CC2 [Compound A-45]	10 to 100 nM	≤ 10 nM	–
COc1nc(-c2cccc(-c3cccc(NC(=O)c4ccnn(C)c4=O)c3C)c2Cl)cc2c1[C@@H](NC[C@@H]1CCC(=O)N1)CO2 [Compound A-46]	≤ 10 nM	≤ 10 nM	–
COc1nc(-c2cccc(-c3cccc(NC(=O)c4ccnn(C)c4=O)c3C)c2Cl)cc2c1[C@@H](NC[C@@H]1CCC(=O)N1)CC2 [Compound A-47]	≤ 10 nM	≤ 10 nM	–
COc1nc(-c2cccc(-c3cccc(NC(=O)c4ccn[nH]c4=O)c3Cl)c2Cl)cc2c1[C@@H](NC[C@@H]1CCC(=O)N1)CC2 [Compound A-51]	≤ 10 nM	≤ 10 nM	–
COc1nc(-c2cccc(-c3cccc(NC(=O)c4ccn[nH]c4=O)c3C)c2Cl)cc2c1[C@@H](NC[C@@H]1CCC(=O)N1)CC2 [Compound A-52]	10 to 100 nM	≤ 10 nM	–
COc1nc(-c2cccc(-c3cccc(NC(=O)c4cn(C)c(=O)n(C)c4=O)c3OC)c2Cl)cc2c1[C@@H](NC[C@@H]1CCC(=O)N1)CC2 [Compound A-53]	100 to 1000 nM	≤ 10 nM	–
COc1nc(-c2cccc(-c3cccc(NC(=O)c4c[nH]c(=O)[nH]c4=O)c3C)c2Cl)cc2c1[C@@H](NC[C@@H]1CCC(=O)N1)CC2 [Compound A-54]	10 to 100 nM	≤ 10 nM	–
COc1nc(-c2cccc(-c3cccc(NC(=O)c4c[nH]c(=O)n(C)c4=O)c3C)c2Cl)cc2c1[C@@H](NC[C@@H]1CCC(=O)N1)CC2 [Compound A-55]	≤ 10 nM	≤ 10 nM	–
COc1nc(-c2cccc(-c3cccc(NC(=O)c4cn(C)c(=O)[nH]c4=O)c3C)c2Cl)cc2c1[C@@H](NC[C@@H]1CCC(=O)N1)CC2 [Compound A-56]	10 to 100 nM	≤ 10 nM	–
COc1nc(-c2cccc(-c3cccc(NC(=O)c4cn(C)c(=O)n(C)c4=O)c3C#N)c2Cl)cc2c1[C@@H](NC[C@@H]1CCC(=O)N1)CC2 [Compound A-57]	≤ 10 nM	≤ 10 nM	–
COc1nc(-c2cccc(-c3cccc(NC(=O)c4nn(C)c(=O)n(C)c4=O)c3C)c2Cl)cc2c1[C@@H](NC[C@@H]1CCC(=O)N1)CC2 [Compound A-58]	≤ 10 nM	≤ 10 nM	–
COc1nc(-c2cccc(-c3ccc(F)c(NC(=O)c4cn(C)c(=O)n(C)c4=O)c3C)c2Cl)cc2c1[C@@H](NC[C@@H]1CCC(=O)N1)CC2 [Compound A-59]	10 to 100 nM	≤ 10 nM	–
COc1nc(-c2cccc(-c3cc(F)cc(NC(=O)c4cn(C)c(=O)n(C)c4=O)c3C)c2Cl)cc2c1[C@@H](NC[C@@H]1CCC(=O)N1)CC2 [Compound A-60]	≤ 10 nM	≤ 10 nM	–
COc1nc(-c2cccc(-c3cc(Cl)cc(NC(=O)c4cn(C)c(=O)n(C)c4=O)c3C)c2Cl)cc2c1[C@@H](NC[C@@H]1CCC(=O)N1)CC2 [Compound A-61]	10 to 100 nM	≤ 10 nM	–
COc1nc(-c2cccc(-c3cc(F)cc(NC(=O)c4nn(C)c(=O)n(C)c4=O)c3C)c2Cl)cc2c1[C@@H](NC[C@@H]1CCC(=O)N1)CC2 [Compound A-62]	≤ 10 nM	≤ 10 nM	–
COc1nc(-c2cccc(-c3cc(F)cc(NC(=O)c4ccnn(C)c4=O)c3C)c2Cl)cc2c1[C@@H](NC[C@@H]1CCC(=O)N1)CC2 [Compound A-63]	≤ 10 nM	≤ 10 nM	–

Other lines, results leading:

EC50 (PD-1/PD-L1 interaction; Homo sapiens, Jurkat, 6 h)	IC50 (PD-1/PD-L1 PPI)	EC50 (PD-1/PD-L1 interaction)	SMILES
≤ 10 nM	≤ 10 nM	–	COc1nc(-c2cc(F)cc(-c3cc(F)cc(NC(=O)c4cn(C)c(=O)n(C)c4=O)c3C)c2Cl)cc2c1[C@@H](NC[C@@H]1CCC(=O)N1)CC2 [Compound A-64]
≤ 10 nM	≤ 10 nM	–	COc1nc(-c2cccc(-c3cc(F)cc(NC(=O)c4cn(C)c(=O)n(C)c4=O)c3Cl)c2Cl)cc2c1[C@@H](NC[C@@H]1CCC(=O)N1)CC2 [Compound A-65]
10 to 100 nM	≤ 10 nM	–	COc1nc(-c2cc(F)cc(-c3cc(F)cc(NC(=O)c4cn(C)c(=O)n(C)c4=O)c3Cl)c2Cl)cc2c1[C@@H](NC[C@@H]1CCC(=O)N1)CC2 [Compound A-66]
≤ 10 nM	≤ 10 nM	–	COc1nc(-c2ccc(F)c(-c3cccc(NC(=O)c4cn(C)c(=O)n(C)c4=O)c3C)c2F)cc2c1[C@@H](NC[C@@H]1CCC(=O)N1)CC2 [Compound A-67]
–	≤ 10 nM	10 to 100 nM	COc1nc(-c2ccc(F)c(-c3cccc(NC(=O)c4cn(C)c(=O)n(C)c4=O)c3C)c2F)cc2c1[C@@H](NC[C@@H]1CCC(=O)N1)CC2 [Compound A-68]
≤ 10 nM	≤ 10 nM	–	COc1nc(-c2cc(F)cc(-c3cccc(NC(=O)c4cn(C)c(=O)n(C)c4=O)c3C)c2Cl)cc2c1[C@@H](NC[C@@H]1CCC(=O)N1)CC2 [Compound A-69]
10 to 100 nM	≤ 10 nM	–	COc1nc(-c2c(F)ccc(-c3cccc(NC(=O)c4cn(C)c(=O)n(C)c4=O)c3C)c2F)cc2c1[C@@H](NC[C@@H]1CCC(=O)N1)CC2 [Compound A-70]
10 to 100 nM	≤ 10 nM	–	COc1nc(-c2cccc(-c3cccc(NC(=O)c4cn(C)c(=O)n(C)c4=O)c3Cl)c2Cl)cc2c1C(N1CCN3C(=O)CC[C@H]3C1)CC2 (stereo partly drawn) [Compound A-117]
10 to 100 nM	≤ 10 nM	–	COc1nc(-c2cccc(-c3cccc(NC(=O)c4cn(C)c(=O)n(C)c4=O)c3Cl)c2Cl)cc2c1C(N1CCN3C(=O)CC[C@@H]3C1)CC2 (stereo partly drawn) [Compound A-118]
100 to 1000 nM	≤ 10 nM	–	COc1nc(-c2cccc(-c3cccc(NC(=O)c4cn(C)c(=O)n(C)c4=O)c3Cl)c2Cl)cc2c1C(N1CCC3(CN(C(=O)OC(C)(C)C)C3)C1)CC2 (stereo not drawn) [Compound A-119]
10 to 100 nM	≤ 10 nM	–	COc1nc(-c2cccc(-c3cccc(NC(=O)c4cn(C)c(=O)n(C)c4=O)c3Cl)c2Cl)cc2c1C(N)C(O)C2 (stereo not drawn) [Compound A-120]
10 to 100 nM	≤ 10 nM	–	COc1nc(-c2cccc(-c3cccc(NC(=O)c4cn(C)c(=O)n(C)c4=O)c3C)c2Cl)cc2c1C(NC[C@@H]1CCC(=O)N1)C(C)C2 (stereo partly drawn) [Compound A-121]
100 to 1000 nM	≤ 10 nM	–	COc1nc(-c2cccc(-c3cccc(NC(=O)c4cn(C)c(=O)n(C)c4=O)c3C)c2Cl)cc2c1C(NC[C@@H]1CCC(=O)N1)CC2C (stereo partly drawn) [Compound A-122]
10 to 100 nM	≤ 10 nM	–	COc1nc(-c2cccc(-c3cccc(Nc4ncnc5cccnc45)c3Cl)c2Cl)cc2c1[C@@H](NC[C@@H]1CCC(=O)N1)CC2 [Compound B-2]
100 to 1000 nM	≤ 10 nM	–	COc1nc(-c2cccc(-c3cccc(Nc4nccc5cccnc45)c3Cl)c2Cl)cc2c1[C@@H](NC[C@@H]1CCC(=O)N1)CC2 [Compound B-3]
10 to 100 nM	≤ 10 nM	–	COc1nc(-c2cccc(-c3cccc(Nc4nccc5nccnc45)c3Cl)c2Cl)cc2c1[C@@H](NC[C@@H]1CCC(=O)N1)CC2 [Compound B-4]
≤ 10 nM	≤ 10 nM	–	COc1nc(-c2cccc(-c3cccc(NC(=O)c4cn(C)c(=O)n(C)c4=O)c3Cl)c2Cl)cc2c1C(N1CC(OC)C1)CC2 [Compound D-1]
≤ 10 nM	≤ 10 nM	–	COc1nc(-c2cccc(-c3cccc(NC(=O)c4cn(C)c(=O)n(C)c4=O)c3Cl)c2Cl)cc2c1C(N1CC(O)C1)CC2 [Compound D-2]
≤ 10 nM	≤ 10 nM	–	COc1nc(-c2cccc(-c3cccc(NC(=O)c4cn(C)c(=O)n(C)c4=O)c3Cl)c2Cl)cc2c1C(N1CC3(CCNC3=O)C1)CC2 [Compound D-3]
10 to 100 nM	≤ 10 nM	–	COc1nc(-c2cccc(-c3cccc(NC(=O)c4cn(C)c(=O)n(C)c4=O)c3Cl)c2Cl)cc2c1C(N[C@@H]1COC[C@@H]1O)CC2 (stereo partly drawn) [Compound D-4]
